Patent US10092575B2, “Substituted thiophene- and furan-fused azolopyrimidine-5-(6H)-one compounds” (DART NEUROSCIENCE (CAYMAN) LTD., priority 2012, dated 2018)

Target: human PDE1b enzyme (Homo sapiens (Human), UniProt Q01064)
Experiment: PDE1b inhibitory assay (IMAP TR-FRET)
Settings: for PDE1b (pEC50): negative log of half-maximal molar inhibitory concentration, 200 nM FAM-cAMP, reported as ranges

SMILES | PDE1b (pEC50) | EC50 [µM]
COc1ccc(Cn2c(=O)n3ncnc3c3c4c(sc32)CN(Cc2nccn2C)CCC4)cc1 [Example 144, 6-(4-Methoxybenzyl)-9-((1-methyl-1H-imidazol-2-yl)methyl)-6,8,9,10,11,12-hexahydro-5H-[1,2,4]triazolo[1″,5″:1′,6′]pyrimido[5′,4′:4,5]thieno[2,3-c]azepin-5-one] | >7 | –
COc1ccc(Cn2c(=O)n3ncnc3c3c4c(sc32)CN(Cc2ncccn2)CCC4)cc1 [Example 145, 6-(4-Methoxybenzyl)-9-(pyrimidin-2-ylmethyl)-6,8,9,10,11,12-hexahydro-5H-[1,2,4]triazolo[1″,5″:1′,6]pyrimido[5′,4′:4,5]thieno[2,3-c]azepin-5-one] | >7 | –
COc1ccc(Cn2c(=O)n3ncnc3c3c4c(sc32)CN(Cc2ccccn2)CCC4)cc1 [Example 146, 6-(4-Methoxybenzyl)-9-(pyridin-2-ylmethyl)-6,8,9,10,11,12-hexahydro-5H-[1,2,4]triazolo[1″,5″:1′,6′]pyrimido[5′,4′:4,5]thieno[2,3-c]azepin-5-one] | >7 | –
COc1ccc(Cn2c(=O)n3ncnc3c3c4c(sc32)CN(CC2CCOCC2)CCC4)cc1 [Example 147, 6-(4-Methoxybenzyl)-9-((tetrahydro-2H-pyran-4-yl)methyl)-6,8,9,10,11,12-hexahydro-5H-[1,2,4]triazolo[1″,5″:1′,6′]pyrimido[5′,4′:4,5]thieno[2,3-c]azepin-5-one] | >7 | –
COc1ccc(Cn2c(=O)n3ncnc3c3c4c(sc32)N(CC2CCOCC2)CCC4)cc1 [Example 148, 6-(4-Methoxybenzyl)-8-((tetrahydro-2H-pyran-4-yl)methyl)-8,9,10,11-tetrahydropyrido[3′,2′:4,5]thieno[3,2-e][1,2,4]triazolo[1,5-c]pyrimidin-5(6H)-one] | >7 | –
COc1ccc(Cn2c(=O)n3ncnc3c3c4c(sc32)N(CC2CCCOC2)CCC4)cc1 (centres unmarked) [Example 149, 6-(4-Methoxybenzyl)-8-((tetrahydro-2H-pyran-3-yl)methyl)-8,9,10,11-tetrahydropyrido[3′,2′:4,5]thieno[3,2-e][1,2,4]triazolo[1,5-c]pyrimidin-5(6H)-one] | >7 | –
COc1ccc(Cn2c(=O)n3ncnc3c3c4c(sc32)N(CC2CCOC2)CCC4)cc1 (centres unmarked) [Example 150, 6-(4-Methoxybenzyl)-8-((tetrahydrofuran-3-yl)methyl)-8,9,10,11-tetrahydropyrido[3′,2′:4,5]thieno[3,2-e][1,2,4]triazolo[1,5-c]pyrimidin-5(6H)-one] | >7 | –
COc1ccc(Cn2c(=O)n3ncnc3c3c4c(sc32)CN(C(C)C(F)F)CC4)cc1 (centres unmarked) [Example 151, 9-(1,1-Difluoropropan-2-yl)-6-(4-methoxybenzyl)-8,9,10,11-tetrahydropyrido[4′,3′:4,5]thieno[3,2-e][1,2,4]triazolo[1,5-c]pyrimidin-5(6H)-one] | – | 0.1 to 1
COc1ccc(Cn2c(=O)n3ncnc3c3c4c(sc32)N(Cc2ccc(Cl)cc2)CCC4)cc1 [Example 152, 8-(4-Chlorobenzyl)-6-(4-methoxybenzyl)-8,9,10,11-tetrahydropyrido[3′,2′:4,5]thieno[3,2-e][1,2,4]triazolo[1,5-c]pyrimidin-5 (6H)-one] | – | 0.1 to 1
COc1ccc(Cn2c(=O)n3ncnc3c3c4c(sc32)N(Cc2ccc(Cl)cc2)CCC4)cc1OC [Example 153, 8-(4-Chlorobenzyl)-6-(3,4-dimethoxybenzyl)-8,9,10,11-tetrahydropyrido[3′,2′:4,5]thieno[3,2-e][1,2,4]triazolo[1,5-c]pyrimidin-5 (6H)-one] | – | 1 to 10
COc1ccc(Cn2c(=O)n3ncnc3c3c4c(sc32)N(Cc2cccc(Cl)c2)CCC4)cc1OC [Example 155, 8-(3-Chlorobenzyl)-6-(3,4-dimethoxybenzyl)-8,9,10,11-tetrahydropyrido[3′,2′:4,5]thieno[3,2-e][1,2,4]triazolo[1,5-c]pyrimidin-5(6H)-one] | – | 1 to 10
COc1ccc(Cn2c(=O)n3ncnc3c3c4c(sc32)CN(CC2CCOCC2)CC4(F)F)c(F)c1 [Example 156, 11,11-Difluoro-6-(2-fluoro-4-methoxybenzyl)-9-((tetrahydro-2H-pyran-4-yl)methyl)-8,9,10,11-tetrahydropyrido[4′,3′:4,5]thieno[3,2-e][1,2,4]triazolo[1,5-c]pyrimidin-5(6H)-one] | >7 | –
O=C(c1cnccn1)N1CCc2c(sc3c2c2ncnn2c(=O)n3Cc2ccc(Cl)cc2)C1 [Example 157, 6-(4-Chlorobenzyl)-9-(pyrazine-2-carbonyl)-8,9,10,11-tetrahydropyrido[4′,3′:4,5]thieno[3,2-e][1,2,4]triazolo[1,5-c]pyrimidin-5(6H)-one] | >7 | –
COc1ccc(Cn2c(=O)n3ncnc3c3c4c(sc32)CN(C(=O)C2CC2)CC4)cc1 [Example 159, 9-(Cyclopropanecarbonyl)-6-(4-methoxybenzyl)-8,9,10,11-tetrahydropyrido[4′,3′:4,5]thieno[3,2-e][1,2,4]triazolo[1,5-c]pyrimidin-5(6H)-one] | >7 | –
COc1ccc(Cn2c(=O)n3ncnc3c3c4c(sc32)CN(S(C)(=O)=O)CC4)cc1 [Example 162, 6-(4-Methoxybenzyl)-9-(methylsulfonyl)-8,9,10,11-tetrahydropyrido[4′,3′:4,5]thieno[3,2-e][1,2,4]triazolo[1,5-c]pyrimidin-5(6H)-one] | >7 | –
COc1ccc(Cn2c(=O)n3ncnc3c3c4c(sc32)CN(C(=O)C2CCN(C)C2)CC4)cc1 (centres unmarked) [Example 163, 6-(4-Methoxybenzyl)-9-(1-methylpyrrolidine-3-carbonyl)-8,9,10,11-tetrahydropyrido[4′,3′:4,5]thieno[3,2-e][1,2,4]triazolo[1,5-c]pyrimidin-5(6H)-one] | – | 0.1 to 1
O=C(C1CC1)N1CCc2c(sc3c2c2ncnn2c(=O)n3Cc2ccc(Cl)cc2F)C1 [Example 164, 6-(4-Chloro-2-fluorobenzyl)-9-(cyclopropanecarbonyl)-8,9,10,11-tetrahydropyrido[4′,3′:4,5]thieno[3,2-e][1,2,4]triazolo[1,5-c]pyrimidin-5(6H)-one] | >7 | –
COc1ccc(Cn2c(=O)n3ncnc3c3c4c(sc32)CN(C(=O)C2CCOC2)CC4(F)F)cc1 (centres unmarked) [Example 166, 11,11-Difluoro-6-(4-methoxybenzyl)-9-(tetrahydrofuran-3-carbonyl)-8,9,10,11-tetrahydropyrido[4′,3′:4,5]thieno[3,2-e][1,2,4]triazolo[1,5-c]pyrimidin-5 (6H)-one] | >7 | –
COc1ccc(Cn2c(=O)n3ncnc3c3c4c(sc32)CN(C(=O)C2CCOC2)CC4)c(F)c1 (centres unmarked) [Example 167, 6-(2-Fluoro-4-methoxybenzyl)-9-(tetrahydrofuran-3-carbonyl)-8,9,10,11-tetrahydropyrido[4′,3′:4,5]thieno[3,2-e][1,2,4]triazolo[1,5-c]pyrimidin-5(6H)-one] | >7 | –
COc1ccc(Cn2c(=O)n3ncnc3c3c4c(sc32)CN(C(=O)C2CC2)CC4)c(F)c1 [Example 168, 9-(Cyclopropanecarbonyl)-6-(2-fluoro-4-methoxybenzyl)-8,9,10,11-tetrahydropyrido[4′,3′:4,5]thieno[3,2-e][1,2,4]triazolo[1,5-c]pyrimidin-5(6H)-one] | >7 | –
COc1ccc(Cn2c(=O)n3ncnc3c3c4c(sc32)CN(C(=O)[C@@H]2CCOC2)CC4)cc1 [Example 169, (R)-6-(4-Methoxybenzyl)-9-(tetrahydrofuran-3-carbonyl)-8,9,10,11-tetrahydropyrido[4′,3′:4,5]thieno[3,2-e][1,2,4]triazolo[1,5-c]pyrimidin-5(6H)-one] | >7 | –
COc1ccc(Cn2c(=O)n3ncnc3c3c4c(sc32)CN(C(=O)C2CCOC2)CC4)cc1 (centres unmarked) [Example 170, 6-(4-Methoxybenzyl)-9-(tetrahydrofuran-3-carbonyl)-8,9,10,11-tetrahydropyrido[4′,3′:4,5]thieno[3,2-e][1,2,4]triazolo[1,5-c]pyrimidin-5(6H)-one] | >7 | –
COc1ccc(Cn2c(=O)n3ncnc3c3c4c(sc32)N(C(=O)C2CC2)CCC4)cc1 [Example 174, 8-(Cyclopropanecarbonyl)-6-(4-methoxybenzyl)-8,9,10,11-tetrahydropyrido[3′,2′:4,5]thieno[3,2-e][1,2,4]triazolo[1,5-c]pyrimidin-5(6H)-one] | >7 | –
COc1ccc(Cn2c(=O)n3ncnc3c3c4c(sc32)N(C(=O)C2CCOC2)CCC4)cc1 (centres unmarked) [Example 175, 6-(4-Methoxybenzyl)-8-(tetrahydrofuran-3-carbonyl)-8,9,10,11-tetrahydropyrido[3′,2′:4,5]thieno[3,2-e][1,2,4]triazolo[1,5-c]pyrimidin-5(6H)-one] | >7 | –
COc1ccc(Cn2c(=O)n3ncnc3c3c4c(sc32)N(C(=O)c2ccccc2)CCC4)cc1OC [Example 176, 8-Benzoyl-6-(3,4-dimethoxybenzyl)-8,9,10,11-tetrahydropyrido[3′,2′:4,5]thieno[3,2-e][1,2,4]triazolo[1,5-c]pyrimidin-5(6H)-one] | – | 1 to 10
COc1ccc(Cn2c(=O)n3ncnc3c3c4c(sc32)CN(c2ccccn2)CC4)cc1 [Example 179, 6-(4-Methoxybenzyl)-9-(pyridin-2-yl)-8,9,10,11-tetrahydropyrido[4′,3′:4,5]thieno[3,2-e][1,2,4]triazolo[1,5-c]pyrimidin-5(6H)-one] | >7 | –
COc1ccc(Cn2c(=O)n3ncnc3c3c4c(sc32)CN(CC2CNCCO2)CC4)cc1 (centres unmarked) [Example 180, 6-(4-Methoxybenzyl)-9-(morpholin-2-ylmethyl)-8,9,10,11-tetrahydropyrido[4′,3′:4,5]thieno[3,2-e][1,2,4]triazolo[1,5-c]pyrimidin-5(6H)-one] | – | 0.1 to 1
COc1ccc(Cn2c(=O)n3ncnc3c3c4c(sc32)CN(C(=O)C2CCNC2)CC4)cc1 (centres unmarked) [Example 181, 6-(4-Methoxybenzyl)-9-(pyrrolidine-3-carbonyl)-8,9,10,11-tetrahydropyrido[4′,3′:4,5]thieno[3,2-e][1,2,4]triazolo[1,5-c]pyrimidin-5(6H)-one] | – | 0.1 to 1
COc1ccc(Cn2c(=O)n3ncnc3c3c4c(sc32)CN(CC2CCNCC2)CC4)cc1 [Example 182, 6-(4-Methoxybenzyl)-9-(piperidin-4-ylmethyl)-8,9,10,11-tetrahydropyrido[4′,3′:4,5]thieno[3,2-e][1,2,4]triazolo[1,5-c]pyrimidin-5(6H)-one] | – | 0.1 to 1
